Assay results: PubChem BioAssay (NCI)
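Interpolation was linear, between the two tested concentrations surrounding the appropriate level; five concentrations were tested over 48 hours in 96-well plates. GI50 is the concentration that inhibits growth by half. TGI: concentration producing complete growth inhibition.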

Tests used:
Assay in all cases: growth of human tumour cells (NCI), 48 h
[1] = tested on: A498 renal
[2] = tested on: IGROV1 ovarian
[3] = tested on: M14 melanoma
[4] = tested on: MDA-MB-231 breast
[5] = tested on: MDA-MB-435
[6] = tested on: MOLT-4 leukemia
[7] = tested on: OVCAR-3 ovarian
[8] = tested on: SR leukemia
[9] = tested on: U251 CNS
[10] = tested on: UO-31 renal

| Structure (SMILES) | GI50 [1] [µM] | TGI [1] [µM] | GI50 [2] [µM] | TGI [2] [µM] | GI50 [3] [µM] | TGI [3] [µM] | GI50 [4] [µM] | TGI [4] [µM] | GI50 [5] [µM] | TGI [5] [µM] | GI50 [6] [µM] | TGI [6] [µM] | GI50 [7] [µM] | TGI [7] [µM] | GI50 [8] [µM] | TGI [8] [µM] | GI50 [9] [µM] | TGI [9] [µM] | GI50 [10] [µM] | TGI [10] [µM] |
| --- | --- | --- | --- | --- | --- | --- | --- | --- | --- | --- | --- | --- | --- | --- | --- | --- | --- | --- | --- | --- |
| O=C(Nc1ccc(Oc2ccc(F)cc2)cc1)[C@@H]1C[C@@H](Cc2ccc(F)cc2)CN1C(=O)Cn1ccnn1 | 8.49 | 27.9 | 8 | 28.2 | 8.54 | 25.7 | 8.91 | 26.6 | 7.16 | 23.7 | 4.2 | 31.6 | 8.12 | 26.7 | 3.14 | 14.2 | 4.79 | 22.2 | 3.5 | 25.2 |
| O=C1CC(c2c[nH]c3ccc(F)cc23)C(=O)N1 (centres undefined) | > 100 | > 100 | > 100 | > 100 | > 100 | > 100 | > 100 | > 100 | > 100 | > 100 | > 100 | > 100 | > 100 | > 100 | > 100 | > 100 | > 100 | > 100 | > 100 | > 100 |
| c1cc(N[C@@H]2CCNC2)nc(-c2cnc3ccc(-c4cn[nH]c4)cn23)c1 | 7.01 | 29 | 5.46 | 17.6 | 13.7 | 44.9 | 3.56 | 36.1 | 11.2 | 26.7 | 4.39 | 51.6 | 2.92 | 24.8 | 2.37 | 10.1 | 3.11 | 18.3 | > 69.3 | > 100 |
| COc1cc(/C=C/C(=O)c2cccc(-n3cc(-c4cc(OC)c(OC)c(OC)c4)[nH]c3=O)c2)cc(OC)c1OC | 20.3 | > 100 | 1.6 | 3.79 | 2.12 | 4.8 | 4.19 | 26.3 | 2.11 | 9.92 | 1.75 | 8.08 | 1.48 | 4.32 | 0.386 | > 100 | 1.23 | 3.71 | 0.962 | 3.13 |
| CSC1=NC(=Nc2c(C)cccc2C)C2(CCC(C(C)(C)C)CC2)N1c1ccc(Cl)cc1 (centres undefined) | > 100 | > 100 | 63.5 | > 100 | 68.2 | > 100 | > 100 | > 100 | 30.9 | > 100 | 6.82 | > 100 | 54.1 | > 100 | 4.21 | > 100 | 8.04 | > 100 | 25.2 | > 100 |
| CCCCN(CCCC)C(=O)[C@H](CC)[C@@H]1CC[C@@H](C)[C@@H]([C@H](C)[C@@H](O)[C@@H](C)C(=O)[C@H](CC)C2O[C@]3(C=C[C@@H](O)[C@]4(CC[C@@](C)([C@H]5CC[C@](O)(CC)[C@H](C)O5)O4)O3)[C@H](C)C[C@@H]2C)O1 (some centres undefined) | 1.99 | 6.24 | 3 | 15.2 |  |  | 1.57 | 3.19 | 2.92 | 10.1 | 2.68 | 8.31 | 1.87 | 4.84 | 2.89 | 8.53 | 2.78 | 10.3 | 2.26 | 8.6 |
| CCOC(=O)[C@@H](C)C[C@H](Cc1ccccc1)NC(=O)c1csc([C@@H](C[C@H](C(C)C)N(C)C(=O)[C@@H](NC(=O)[C@H]2CCCCN2C)C(C)(C)CC)OC(C)=O)n1 | < 0.00167 | 0.0114 | 0.0021 | > 16.7 | < 0.00167 | 1.8 | 0.00283 | 1.18 | < 0.00167 | < 0.00167 | 0.00338 | > 13.1 | < 0.00167 |  | < 0.00167 | 3.39 | < 0.00167 | > 7.64 | 0.0132 | 14.1 |
| C/C(=N\O)c1ccc2ccc3ccccc3c2c1 |  |  |  | > 100 |  | > 100 |  | > 100 |  | 46.9 |  | 52.9 |  | 90.9 |  | 48.7 |  | > 100 |  | > 100 |
| O=C1/C(=C/c2ccc(Cl)c(Cl)c2)CN(C(=O)C(Cl)Cl)C/C1=C\c1ccc(Cl)c(Cl)c1 | 0.216 | 0.664 | 0.103 | 0.306 | 0.206 | 0.587 | 0.237 | 1.16 | 0.222 | 0.546 | 0.0985 | > 100 | 0.0571 | 0.237 | 0.0267 | > 100 | 0.0371 | 0.153 | 0.133 | 0.267 |
| c1ccc(-c2oc(-c3ccccc3)c(CN3CCCCC3)c2CN2CCCCC2)cc1 | 2.41 | 11.8 | 1.73 | 14.4 | 1.83 | 4.25 | 1.77 | 6.06 | 2.73 | 10.6 | 2.03 | 5.58 | 2.92 | 10.5 | 2.52 | 6.06 | 3.55 | 14.2 | 2.13 | 11.1 |
| Cc1ccc(CNc2ccc(Br)cc2)cc1 |  | > 100 |  |  |  | > 100 |  | > 100 |  | > 100 |  | > 100 |  | > 100 |  | > 100 |  | > 100 |  | 49.2 |
| COc1cccc(/C=C/C(=O)c2ccc3cc(OC)ccc3c2)c1 |  |  | 4.05 | 21.7 | 13.6 | 41.3 | 8.95 | 22.9 | 7.38 | 19 |  |  | 9.67 | 22.8 | 10.1 | > 50 | 14 | 42 | 9.25 | 19 |
| C[C@@]1([C@H](OC(=O)c2ccccc2)C(N)=O)CO1 | 33.8 | 88.3 | 19.6 | > 100 | 22.1 | 53.9 | 14.9 | 41.8 | 17.8 | 36 | 35.7 | > 100 | 16.4 | 35.4 |  |  | 17.1 | 37.5 | 20.2 | 51.8 |
